Key:
[1] = test system: Human platelet aggregation caused by ADP; assay: Inhibition of ADP-induced platelet aggregation (Mimic-human PRP); type: cell-based; details: 20 μM ADP, human platelet concentrate diluted with PPP, absorption at 595 nm
How it was run: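 Ki came from non-linear sigmoidal fits of inhibition, measured as the 3-min rise in absorbance at 595 nm after 20 μM ADP, relative to 0/20 μM ADP controls. Platelets (3–4×10^8/mL in PPP-diluted human PRP) were exposed to 0.01–30 μM compound for 20 min at room temperature beforehand.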

Human P2Y12 receptor = molecular target: T1, Human P2Y12 receptor (Homo sapiens, UniProt Q9H244); assay: Human P2Y12 receptor cell membrane binding assay with [3H] 2-Mes-ADP; details: 1 nM [3H] 2-Mes-ADP, membranes of HEK cells expressing P2Y12 receptor; read-out: Binding activity (IC50)
T1 construct: expressed in transfected cells; host or cells: HEK cells
How it was run: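 Competition binding used 1 nM [3H]2-MeS-ADP on P2Y12-expressing HEK cell membranes for 1 h at room temperature, followed by filtration and scintillation counting.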

T1 sequence (Q9H244 whole entry): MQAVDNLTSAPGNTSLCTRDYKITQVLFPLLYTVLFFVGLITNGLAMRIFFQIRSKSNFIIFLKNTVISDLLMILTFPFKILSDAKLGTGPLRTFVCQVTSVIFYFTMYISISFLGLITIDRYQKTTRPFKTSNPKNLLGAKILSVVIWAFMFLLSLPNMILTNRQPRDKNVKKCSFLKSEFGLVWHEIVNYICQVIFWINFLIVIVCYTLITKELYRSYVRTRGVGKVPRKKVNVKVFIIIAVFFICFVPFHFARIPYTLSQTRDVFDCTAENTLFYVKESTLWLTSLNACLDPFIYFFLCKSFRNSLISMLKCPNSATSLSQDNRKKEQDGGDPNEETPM

SMILES | Ki [1] [nM] | IC50 (Human P2Y12 receptor) [nM]
CCCc1cc2c(N3CCn4c(nnc4C(F)(F)F)C3)nc(N3CC[C@@H](C(=O)OC(C)C)C3)nc2s1 [Example 1-62, (R)-1-[6-Propyl-4-(3-trifluoromethyl-5,6-dihydro-8H-[1,2,4]triazolo[4,3-a]pyrazin-7-yl)-thieno[2,3-d]pyrimidin-2-yl]-pyrrolidine-3-carboxylic acid isopropyl ester] | 200 | 320
CCCc1cc2c(N3CCn4c(nnc4C(F)(F)F)C3)nc(N3CC[C@@H](C(=O)OCOC(=O)C(C)(C)C)C3)nc2s1 [Example 1-63, (R)-1-[6-Propyl-4-(3-trifluoromethyl-5,6-dihydro-8H-[1,2,4]triazolo[4,3-a]pyrazin-7-yl)-thieno[2,3-d]pyrimidin-2-yl]-pyrrolidine-3-carboxylic acid 2,2-dimethyl-propionyloxymethyl ester] | 1000 | 520
CCCc1cc2c(N3CCn4c(nnc4C(F)(F)F)C3)nc(N(C)C)nc2s1 [Example 1-64, Dimethyl-[6-propyl-4-(3-trifluoromethyl-5,6-dihydro-8H-[1,2,4]triazolo[4,3-a]pyrazin-7-yl)-thieno[2,3-d]pyrimidin-2-yl]-amine] | > 4000 | 170
CCCc1cc2c(N3CCn4c(nnc4C(F)(F)F)C3)nc(N3CCc4ccccc4C3)nc2s1 [Example 1-65, 2-[6-Propyl-4-(3-trifluoromethyl-5,6-dihydro-8H-[1,2,4]triazolo[4,3-a]pyrazin-7-yl)-thieno[2,3-d]pyrimidin-2-yl]-1,2,3,4-tetrahydro-isoquinoline] | 260 | 257
CCCc1cc2c(N3CCn4c(nnc4C(F)(F)F)C3)nc(N3CCc4cc(OC)c(OC)cc4C3)nc2s1 [Example 1-66, 6,7-Dimethoxy-2-[6-propyl-4-(3-trifluoromethyl-5,6-dihydro-8H-[1,2,4]triazolo[4,3-a]pyrazin-7-yl)-thieno[2,3-d]pyrimidin-2-yl]-1,2,3,4-tetrahydro-isoquinoline] | 1400 | 200
CCCc1cc2c(N3CCn4c(nnc4C(F)(F)F)C3)nc(N3CCc4cc(OC)c(OC)cc4C3CC)nc2s1 (centres unmarked) [Example 1-67, 1-Ethyl-6,7-dimethoxy-2-[6-propyl-4-(3-trifluoromethyl-5,6-dihydro-8H-[1,2,4]triazolo[4,3-a]pyrazin-7-yl)-thieno[2,3-d]pyrimidin-2-yl]-1,2,3,4-tetrahydro-isoquinoline] | > 4000 | 643
CCCc1cc2c(N3CCn4c(nnc4C(F)(F)F)C3)nc(N3CCNc4ccccc43)nc2s1 [Example 1-68, 1-[6-Propyl-4-(3-trifluoromethyl-5,6-dihydro-8H-[1,2,4]triazolo[4,3-a]pyrazin-7-yl)-thieno[2,3-d]pyrimidin-2-yl]-1,2,3,4-tetrahydro-quinoxaline] | 430 | 100
CCCc1cc2c(N3CCn4c(nnc4C(F)(F)F)C3)nc(N3CCC(N)CC3)nc2s1 [Example 1-69, 1-[6-Propyl-4-(3-trifluoromethyl-5,6-dihydro-8H-[1,2,4]triazolo[4,3-a]pyrazin-7-yl)-thieno[2,3-d]pyrimidin-2-yl]-piperidin-4-ylamine] | 300 | 82
CCCc1cc2c(N3CCn4c(nnc4C(F)(F)F)C3)nc(N3CCCC(N)C3)nc2s1 (centres unmarked) [Example 1-70, 1-[6-Propyl-4-(3-trifluoromethyl-5,6-dihydro-8H-[1,2,4]triazolo[4,3-a]pyrazin-7-yl)-thieno[2,3-d]pyrimidin-2-yl]-piperidin-3-ylamine] | 110 | 167
CCCc1cc2c(N3CCn4c(nnc4C(F)(F)F)C3)nc(N3CCc4ccccc43)nc2s1 [Example 1-71, 7-[2-(2,3-Dihydro-indol-1-yl)-6-propyl-thieno[2,3-d]pyrimidin-4-yl]-3-trifluoromethyl-5,6,7,8-tetrahydro-[1,2,4]triazolo[4,3-a]pyrazine] | > 4000 | 526
CCCc1cc2c(N3CCn4c(nnc4C(F)(F)F)C3)nc(N3Cc4ccccc4C3)nc2s1 [Example 1-72, 7-[2-(1,3-Dihydro-isoindol-2-yl)-6-propyl-thieno[2,3-d]pyrimidin-4-yl]-3-trifluoromethyl-5,6,7,8-tetrahydro-[1,2,4]triazolo[4,3-a]pyrazine] | > 4000 | 517
CCCc1cc2c(N3CCn4c(nnc4C(F)(F)F)C3)nc(-n3ccc4ccccc43)nc2s1 [Example 1-73, 7-(2-Indol-1-yl-6-propyl-thieno[2,3-d]pyrimidin-4-yl)-3-trifluoromethyl-5,6,7,8-tetrahydro-[1,2,4]triazolo[4,3-a]pyrazine] | > 4000 | 360
CCCc1cc2c(N3CCn4c(nnc4C(F)(F)F)C3)nc(N3CCn4c(nnc4C(F)(F)F)C3)nc2s1 [Example 1-74, 7,7′-(6-propylthieno[2,3-d]pyrimidine-2,4-diyl)bis[3-(trifluoromethyl)-5,6,7,8-tetrahydro[1,2,4]triazolo[4,3-a]pyrazine]] | 40 | 33
CCCc1cc2c(N3CCn4c(nnc4C(F)(F)F)C3)nc(N3CCn4cnnc4C3)nc2s1 [Example 1-75, 7-[2-(5,6-Dihydro-8H-[1,2,4]triazolo[4,3-a]pyrazin-7-yl)-6-propyl-thieno[2,3-d]pyrimidin-4-yl]-3-trifluoromethyl-5,6,7,8-tetrahydro-[1,2,4]triazolo[4,3-a]pyrazine] | 7 | 32
CCCc1cc2c(N3CCn4c(nnc4C(F)(F)F)C3)nc(N3CCn4ccnc4C3)nc2s1 [Example 1-77, 7-[2-(5,6-Dihydro-8H-imidazo[1,2-a]pyrazin-7-yl)-6-propyl-thieno[2,3-d]pyrimidin-4-yl]-3-trifluoromethyl-5,6,7,8-tetrahydro-[1,2,4]triazolo[4,3-a]pyrazine] | 60 | 47
CCCc1cc2c(N3CCn4c(nnc4C(F)(F)F)C3)nc(N3CCn4cc(C(F)(F)F)nc4C3)nc2s1 [Example 1-78, 7-[6-Propyl-2-(2-trifluoromethyl-5,6-dihydro-8H-imidazo[1,2-a]pyrazin-7-)-thieno[2,3-d]pyrimidin-4-yl]-3-trifluoromethyl-5,6,7,8-tetrahydro-[1,2,4]triazolo[4,3-a]pyrazine] | 200 | 110
CCCc1cc2c(N3CCn4c(nnc4C(F)(F)F)C3)nc(N3CCc4sccc4C3)nc2s1 [Example 1-79, 7-[2-(6,7-Dihydro-4H-thieno[3,2-c]pyridin-5-yl)-6-propyl-thieno[2,3-d]pyrimidin-4-yl]-3-trifluoromethyl-5,6,7,8-tetrahydro-[1,2,4]triazolo[4,3-a]pyrazine] | 1250 | 370
CCCc1cc2c(N3CCn4c(nnc4C(F)(F)F)C3)nc(NC(Cc3ccc(O)cc3)C(=O)O)nc2s1 (centres unmarked) [Example 1-81, 3-(4-Hydroxy-phenyl)-2-[6-propyl-4-(3-trifluoromethyl-5,6-dihydro-8H-[1,2,4]triazolo[4,3-a]pyrazin-7-yl)-thieno[2,3-d]pyrimidin-2-ylamino]-propionic acid] | 2300 | 320
CCCc1cc2c(N3CCn4c(nnc4C(F)(F)F)C3)nc(N3CCN(C(=O)C(F)(F)F)CC3)nc2s1 [Example 1-82, 2,2,2-Trifluoro-1-{4-[6-propyl-4-(3-trifluoromethyl-5,6-dihydro-8H-[1,2,4]triazolo[4,3-a]pyrazin-7-yl)-thieno[2,3-d]pyrimidin-2-yl]-piperazin-1-yl}-ethanone] | > 4000 | 14300
CCCc1cc2c(N3CCn4c(nnc4C(F)(F)F)C3)nc(NC3CNC3)nc2s1 [Example 1-83, Azetidin-3-yl-[6-propyl-4-(3-trifluoromethyl-5,6-dihydro-8H-[1,2,4]triazolo[4,3-a]pyrazin-7-yl)-thieno[2,3-d]pyrimidin-2-yl]-amine] | 7 | 320
CCCc1cc2c(N3CCn4c(nnc4C(F)(F)F)C3)nc(N3CC(OC(C)=O)C3)nc2s1 [Example 1-84, Acetic Acid 1-[6-propyl-4-(3-trifluoromethyl-5,6-dihydro-8H-[1,2,4]triazolo[4,3-a]pyrazin-7-yl)-thieno[2,3-d]pyrimidin-2-yl]-azetidin-3-yl ester] | 73 | 160
CCCc1cc2c(N3CCn4c(nnc4C(F)(F)F)C3)nc(N3CC(O)C3)nc2s1 [Example 1-85, 1-[6-Propyl-4-(3-trifluoromethyl-5,6-dihydro-8H-[1,2,4]triazolo[4,3-a]pyrazin-7-yl)-thieno[2,3-d]pyrimidin-2-yl]-azetidin-3-ol] | 14 | 96
CCCc1cc2c(N3CCn4c(nnc4C(F)(F)F)C3)nc(N3CC[C@H](C(N)=O)C3)nc2s1 [Example 1-86, (S)-1-[6-Propyl-4-(3-trifluoromethyl-5,6-dihydro-8H-[1,2,4]triazolo[4,3-a]pyrazin-7-yl)-thieno[2,3-d]pyrimidin-2-yl]-pyrrolidine-3-carboxylic acid amide] | 11 | 24
CCCc1cc2c(N3CCn4c(nnc4C(F)(F)F)C3)nc(N3CC[C@H](C(=O)NC)C3)nc2s1 [Example 1-87, (S)-1-[6-Propyl-4-(3-trifluoromethyl-5,6-dihydro-8H-[1,2,4]triazolo[4,3-a]pyrazin-7-yl)-thieno[2,3-d]pyrimidin-2-yl]-pyrrolidine-3-carboxylic acid methylamide] | 11 | 67
CCCc1cc2c(N3CCn4c(nnc4C(F)(F)F)C3)nc(N3CC[C@H](C(=O)NO)C3)nc2s1 [Example 1-89, (S)-1-[6-Propyl-4-(3-trifluoromethyl-5,6-dihydro-8H-[1,2,4]triazolo[4,3-a]pyrazin-7-yl)-thieno[2,3-d]pyrimidin-2-yl]-pyrrolidine-3-carboxylic acid hydroxyamide] | 12 | 55

Source: patent publication US20110166121A1 (LG LIFE SCIENCES LTD., priority 2008, published 2011)
